Values belong to the compound of their own block, whether it stands above or below them. Activity calls are given as the source filed them. The calls are words filed in the database; no cut-off is given here.
How the values were obtained:
Keratinocyte [1] = test: Cytotoxicity against human Keratinocyte incubated for 48 hrs by MTT assay; format: toxicity, cell-based
[2] = Cytotoxicity against human Keratinocyte assessed as cell viability at 1 uM incubated for 48 hrs by MTT assay (reference value: 100 + /-7 %); format: toxicity, cell-based; details: keratinocytes, read-out: Activity
[3] = Inhibition of 6His tagged NOXO1 (149 to 286 residues) (unknown origin) expressed in Escherichia coli BL21 (DE3)-CYBA (unknown origin) protein-protein interaction assessed as apparent dissociation constant at 800 uM by isothermal titration calorimetry; parameters: species or system Homo sapiens; details: read-out: Kd(app)
Keratinocyte [4] = test: Cytoprotective activity in human Keratinocyte assessed as effect on CPD intensity incubated for 24 hrs by immunohistological analysis; format: functional, cell-based
Homo sapiens = species: Homo sapiens; test: Inhibition of 6His tagged NOXO1 (149 to 286 residues) (unknown origin) expressed in Escherichia coli BL21 (DE3)-CYBA (unknown origin) protein-protein interaction by MALDI-TOF-MS analysis
[5] = Cytoprotective activity in human Keratinocyte assessed as decrease in UV-radiation induced DNA damage by measuring CPD intensity preincubated for 24 hrs followed by UV exposure and measured after 24 hrs by immunohistological analysis (reference value: 0.003 a.u.); format: functional; details: time 48 hrs
[6] = Inhibition of 6His tagged NOXO1 (149 to 286 residues) (unknown origin) expressed in Escherichia coli BL21 (DE3)-CYBA (unknown origin) protein-protein interaction assessed as apparent dissociation constant at 200 uM by isothermal titration calorimetry; parameters: species or system Homo sapiens; details: read-out: Kd(app)
[7] = Cytoprotective activity in human Keratinocyte assessed as fold decrease in UV-radiation induced DNA damage preincubated for 24 hrs followed by UV exposure and measured after 24 hrs by immunohistological analysis; format: functional; details: time 48 hrs
[8] = biological target: T1, NADPH oxidase organizer 1 (Homo sapiens) (UniProt Q8NFA2); test: Binding affinity to 6His tagged NOXO1 (149 to 286 residues) (unknown origin) expressed in Escherichia coli BL21 (DE3) assessed as change in enthalpy at 800 uM by isothermal titration calorimetry
T1 sequence (whole entry): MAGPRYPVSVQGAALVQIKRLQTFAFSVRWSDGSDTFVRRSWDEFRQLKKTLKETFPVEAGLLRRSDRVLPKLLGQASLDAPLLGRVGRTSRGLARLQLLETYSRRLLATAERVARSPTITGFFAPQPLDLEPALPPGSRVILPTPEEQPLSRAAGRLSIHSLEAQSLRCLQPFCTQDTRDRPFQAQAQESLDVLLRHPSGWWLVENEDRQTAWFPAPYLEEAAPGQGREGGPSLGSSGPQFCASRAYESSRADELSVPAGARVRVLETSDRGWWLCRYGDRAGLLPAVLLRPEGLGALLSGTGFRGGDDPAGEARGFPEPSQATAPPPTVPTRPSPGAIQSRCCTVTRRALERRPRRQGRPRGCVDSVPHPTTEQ

Structure (SMILES): NC(=O)c1cccc(-c2ccccc2NCC2CCNCC2)c1
Activity (Keratinocyte [1]): Non-Toxic | viability at 48 h, 1 µM [2]: 106% | Kd [3]: 4.1 µM

inhibition (Homo sapiens): Active | deltaH [8]: 5.2 kcal/mol
Structure (SMILES): NC(=O)c1cccc(-c2ccccc2NCC2CCN(C(=O)CCOCCOCCOCCOCCNC(=O)CCCC[C@H]3SC[C@H]4NC(=O)N[C@H]43)CC2)c1
Activity (Keratinocyte [4]): inactive | Activity [5]: 0.004 a.u. | Activity (Keratinocyte [1]): Non-Toxic | viability at 48 h, 1 µM [2]: 101% | Kd [6]: 39 µM | fold change (FC) [7]: 175

Structure (SMILES): COCCOCCC(=O)N1CCC(CNc2ccccc2-c2cccc(C(N)=O)c2)CC1
Kd [6]: 44 µM

Structure (SMILES): COCCOCCC(=O)N(C)Cc1ccccc1
Kd [6]: 2.3 µM

— ChEMBL document CHEMBL5257083, “Identification of a Noxo1 inhibitor by addition of a polyethylene glycol chain” (Bioorg Med Chem, 2023)
